In patent publication US5644053A, “Penam derivatives” (Hoffmann-La Roche Inc., priority 1994, dated 1997):
Like-named read-outs stand apart in the source and are kept apart here.

Experiments:
β-lactamase [1] = type: biochemical; conditions: read-out: IC50 E. coli CF 102 (β-lactamase inhibition)
Method: Various β-lactamases can be isolated from penicillin- or cephalosporin-resistant bacterial strains such as Klebsiella pneumonia NCTC 418, Proteus vulgaris 1028, Bacillus licheniformis 749/C, Escherichia coil SN01 and Citrobacter freundii 1203. For this purpose, the corresponding strains are cultivated in Tryptic Soy Broth (Difco) and harvested by centrifugation in the last logarithmic growth phase (when necessary 50-100 mg/l of ampicillin are added to the medium towards the end of the log-phase in order to induce the β-lactamase). The thus-obtained bacterial mass is treated with 20 mM Tris-HCl buffer (pH 7.0); the cells are broken open with a French press while cooling. The mixture is centrifuged (20,000 r/min.) for 20-30 minutes and a clear crude extract is obtained.
(§4) The determination of the activity of the isolated β-lactamases can be carried out according to the method of O'-Callaghan, C. […] The requisite test batch contains per ml of water: 50 mM phosphate buffer (pH 7.0), 0.1 mM nitrocefin and sufficient enzyme (β-lactamase) to achieve a ΔA/min. of about 0.1.
(§5) The determination of the IC50 was effected by means of a graph.

β-lactamase [2] = molecular target: β-lactamase (Citrobacter freundii, UniProt P05193); conditions: read-out: IC50 C. freundii 1982 (β-lactamase inhibition)
Method: For this purpose, the corresponding strains are cultivated in Tryptic Soy Broth (Difco) and harvested by centrifugation in the last logarithmic growth phase (when necessary 50-100 mg/l of ampicillin are added to the medium towards the end of the log-phase in order to induce the β-lactamase). The thus-obtained bacterial mass is treated with 20 mM Tris-HCl buffer (pH 7.0); the cells are broken open with a French press while cooling. The mixture is centrifuged (20,000 r/min.) for 20-30 minutes and a clear crude extract is obtained.
as §4, §5

Ps. aeruginosa = experiment: In vitro activity of combinations with selected antibiotics against β-lactamase over-producer strains, Ps. aeruginosa; type: cell-based; conditions: β-lactamase over-producer strain; combinations: constant inhibitor concentration 4 mg/l; unit assumed
Method: (§1) In vitro activity of combinations of Example 5c with selected
(§2) antibiotics against β-lactamase over-producer strains
(§3) (constant inhibitor concentration: 4 mg/l)

C. freundii = experiment: In vitro activity of combinations with selected antibiotics against β-lactamase over-producer strains, C. freundii; type: cell-based; conditions: β-lactamase over-producer strain; combinations: constant inhibitor concentration 4 mg/l; unit assumed
Method: as §1, §2, §3

E. cloacae = experiment: In vitro activity of combinations with selected antibiotics against β-lactamase over-producer strains, E. cloacae; type: cell-based; conditions: β-lactamase over-producer strain; combinations: constant inhibitor concentration 4 mg/l; unit assumed
Method: as §1, §2, §3

E. coli = experiment: In vitro activity of combinations with selected antibiotics against β-lactamase over-producer strains, E. coli; type: cell-based; conditions: β-lactamase over-producer strain; combinations: constant inhibitor concentration 4 mg/l; unit assumed
Method: as §1, §2, §3

[3] = isolated enzyme, nitrocefin substrate, pH 7.0, 37° C., 15 min pre-incubation

β-lactamase (Citrobacter freundii, UniProt P05193), sequence (P05193 21-381): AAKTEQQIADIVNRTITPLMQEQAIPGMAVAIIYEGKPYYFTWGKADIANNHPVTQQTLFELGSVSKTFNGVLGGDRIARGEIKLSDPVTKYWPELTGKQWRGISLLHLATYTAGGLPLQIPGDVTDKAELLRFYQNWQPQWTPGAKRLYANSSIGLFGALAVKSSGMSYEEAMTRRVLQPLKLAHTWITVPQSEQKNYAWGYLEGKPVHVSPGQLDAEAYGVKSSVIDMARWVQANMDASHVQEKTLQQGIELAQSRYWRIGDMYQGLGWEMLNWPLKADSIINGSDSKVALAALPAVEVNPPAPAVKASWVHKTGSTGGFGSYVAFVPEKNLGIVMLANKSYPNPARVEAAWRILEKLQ

SMILES | IC50 (β-lactamase [1]; pH 7) [µM] | MIC Ps. aeruginosa (Ps. aeruginosa) [µg/mL] | MIC C. freundii (C. freundii) [µg/mL] | MIC E. cloacae (E. cloacae) [µg/mL] | MIC E. coli (E. coli) [µg/mL] | also measured
CCOC(=O)/C=C/[C@@]1(C)[C@H](C(=O)O)N2C(=O)C[C@H]2S1(=O)=O [2c (trans ethyl ester), Sodium (E)-(2S,3S,5R)-3-(2-ethoxycarbonyl-vinyl)-3-methyl-4,4,7-trioxo-4-thia-1-aza-bicyclo[3.2.0]heptane-2-carboxylate] | 0.456 | – | – | – | – | –
C[C@]1(/C=C\C#N)[C@H](C(=O)O)N2C(=O)C[C@H]2S1(=O)=O [5c (cis nitrile), Sodium (Z)-(2S,3S,5R)-3-(2-cyanoethenyl)-3-methyl-4,4,7-trioxo-4-thia-1-aza-bicyclo [3.2.0]heptane-2-carboxylate] | 0.126 | – | – | – | – | –
C[C@]1(/C=C/C#N)[C@H](C(=O)O)N2C(=O)C[C@H]2S1(=O)=O [5c (trans nitrile), Sodium (E)-(2S,3S,5R)-3-(2-cyanoethenyl)-3-methyl-4,4,7-trioxo-4-thia-1-aza-bicyclo[3.2.0]heptane-2-carboxylate] | 0.681 | – | – | – | – | –
C[C@]1(/C=C\C(N)=O)[C@H](C(=O)O)N2C(=O)C[C@H]2S1(=O)=O [6c (cis amide), Sodium (Z)-(2S,3S,5R)-3-(2-carbamoyl-vinyl)-3-methyl-4,4,7-trioxo-4-thia-1-aza-bicyclo[3.2.0]heptane-2-carboxylate] | 0.13 | – | – | – | – | IC50 (β-lactamase [2]; [3]): 4.34 µM
C[C@]1(/C=C/C(N)=O)[C@H](C(=O)O)N2C(=O)C[C@H]2S1(=O)=O [6c (trans amide), Sodium (E)-(2S,3S,5R)-3-(2-carbamoyl-vinyl)-3-methyl-4.4.7-trioxo-4-thia-1-azabicyclo[3.2.0]heptane-2-carboxylate] | – | – | – | – | – | IC50 (β-lactamase [2]; [3]): 2.25 µM; IC50 (β-lactamase [1]; [3]): 0.054 µM
CC1(C)S[C@@H]2[C@H](NC(=O)[C@H](NC(=O)c3cnc4cccnc4c3O)c3ccccc3)C(=O)N2[C@H]1C(=O)O [Apalcillin] | – | 64 | > 128 | > 128 | > 64 | –
CC(C)(O/N=C(\C(=O)N[C@@H]1C(=O)N2C(C(=O)[O-])=C(C[n+]3ccccc3)CS[C@H]12)c1csc(N)n1)C(=O)O [Ceftazidime] | – | 32 | > 64 | > 64 | 32 | –
CO/N=C(\C(=O)N[C@@H]1C(=O)N2C(C(=O)O)=C(CSc3nc(=O)c(=O)[nH]n3C)CS[C@H]12)c1csc(N)n1 [Ceftriaxone] | – | > 64 | 64 | > 64 | 16 | –
CCN1CCN(C(=O)N[C@@H](C(=O)N[C@@H]2C(=O)N3[C@@H]2SC(C)(C)[C@@H]3C(=O)O)c2ccccc2)C(=O)C1=O [Piperacillin] | – | > 64 | > 128 | > 128 | > 64 | –
C[C@]1(Cn2ccnn2)[C@H](C(=O)O)N2C(=O)C[C@H]2S1(=O)=O [Tazobactam] | – | – | – | – | – | IC50 (β-lactamase [2]; pH 7): 0.9 µM; IC50 (β-lactamase [1]; [3]): 0.015 µM
